Test results published in patent US3988456A, “1,2-Diphenylethanolamine derivatives and their salts and the preparation thereof” (Dainippon Pharmaceutical Co., Ltd., priority 1974, dated 1976).
Structures can show the parent of a compound that is named as a salt.

Tests used:
male mice of ddN strain = assay: Analgesic activity: D'Amour-Smith method (thermal pain); assay type: in vivo; settings: response time prolonged more than 100 %; for ED50: Mus musculus, sc; for Analgesic ED50 value, D'Amour-Smith method: s.c.
Procedure: i. D'Amour-Smith method (cf. F. E. D'Amour and D. L. Smith, J. Pharmacol., Vol. 72, page 74, 1941)
Thermal pain was induced by radiating heat light on the tail blacked with a black ink of male mice of ddN strain, weighing 9 to 12 g, using the modified apparatus of D'Amour-Smith. The analgesic ED50 -value was calculated from the number of positive animals showing the response time prolonged more than 100 % compared with each before value.

female mice = assay: Analgesic activity: Phenylquinone method (chemical pain); assay type: in vivo, mice (ddN strain); settings: drugs given 30 minutes before i.p. phenylquinone; for ED50: Mus musculus, po
Procedure: ii. Phenylquinone method (cf. E. Siegmund, R. Cadmus and G. Lu, Proc. Soc. Exptl. Biol. Med., Vol. 95, page 729, 1957)
Chemical pain was induced by an intraperitoneal injection of 0.1 ml/10 g body weight of 0.03 % phenylquinone in 5 % aqueous ethanol in female mice, weighing 18 to 22 g of ddN strain. Drugs were given 30 minutes before challenge of phenylquinone.

Male guinea-pigs = assay: Anti-tussive activity (coughs by mechanical stimulation); assay type: in vivo; settings: intraperitoneal; for anti-tussive activity: dose of 5-40 mg/kg; for anti-tussive activity compared with codeine phosphate: vs codeine phosphate
Procedure: 2. Anti-tussive activity (cf. K. Takagi, H. Fukuda and K. Yano, Yakugakuzasshi, Vol. 80, page 1497, 1960)
Male guinea-pigs, weighing 350 to 450 g, were used. Coughs were caused by successive mechanical stimulations with whiskers, and anti-tussive effects were evaluated by all or none of the cough. The Test Compounds F and G were intraperitoneally injected.

## Cl.Cl.O=C(c1ccccc1)C(c1ccccc1)N1CCN(Cc2ccccc2)CC1 (racemic) [compound 2, dl-2-Phenyl-2-(4-benzylpiperazin-1-yl)acetophenone dihydrochloride, reference compound]
Male mice of ddN strain
  ED50: > 320 mg/kg

## COc1ccc(CN2CCN([C@H](c3ccccc3)[C@@H](O)c3ccc(Cl)cc3)CC2)cc1 (relative stereo) [Test Compound A, dl-Erythro-1-(p-chlorophenyl)-2-phenyl-2-[4-(p-methoxybenzyl)piperazin-1-yl]ethanol dihydrochloride]
Female mice
  ED50: 49.9 mg/kg

## COc1ccc(CN2CCN([C@H](c3ccccc3Cl)[C@@H](O)c3ccccc3)CC2)cc1 (relative stereo) [Test Compound B, dl-Erythro-1-phenyl-2-(o-chlorophenyl)-2-[4-(p-methoxybenzyl)piperazin-1-yl]ethanol dihydrochloride]
Female mice
  ED50: 45.1 mg/kg
Male mice of ddN strain
  ED50: 55.5 mg/kg

## COc1ccc(CN2CCN([C@H](c3ccccc3OC)[C@@H](O)c3ccccc3)CC2)cc1 (relative stereo) [Test Compound C, dl-Erythro-1-phenyl-2-(o-methoxyphenyl)-2-[4-(p-methoxybenzyl)piperazin-1-yl]ethanol dihydrochloride]
Female mice
  ED50: 28.6 mg/kg
Male mice of ddN strain
  ED50: 32.5 mg/kg

## COc1ccc(CN2CCN([C@H](c3ccc(C)cc3)[C@@H](O)c3ccc(C)cc3)CC2)cc1 (relative stereo) [Test Compound D, dl-Erythro-1-(p-tolyl)-2-(p-tolyl)-2-[4-(p-methoxybenzyl)piperazin-1-yl]ethanol dihydrochloride]
Female mice
  ED50: 55.6 mg/kg
Male mice of ddN strain
  ED50: 98.6 mg/kg

## COc1ccc(CN2CCN([C@H](c3ccccc3C)[C@@H](O)c3ccccc3)CC2)cc1 (relative stereo) [Test Compound E, dl-Erythro-1-phenyl-2-(o-tolyl)-2-[4-(p-methoxybenzyl)-piperazin-1-yl]ethanol dihydrochloride]
Female mice
  ED50: 30.2 mg/kg
Male mice of ddN strain
  ED50: 65.2 mg/kg

## COc1ccc(CN2CCN([C@H](c3ccccc3)[C@@H](O)c3cccc(C)c3)CC2)cc1 (relative stereo) [Test Compound G, dl-erythro-1-(m-tolyl)-2-phenyl-2-[4-(p-methoxybenzyl)piperazine-1-yl]ethanol dihydrochloride]
Male guinea-pigs
  anti-tussive activity: excellent anti-tussive activity in a dose of 5-40 mg/kg
  anti-tussive activity compared with codeine phosphate: comparable with that of codeine phosphate

## CN1CCN([C@H](c2ccccc2)[C@@H](O)c2ccccc2)CC1 (relative stereo) [compound 1, dl-Erythro-1,2-diphenyl-2-(4-methylpiperazin-1-yl)ethanol dihydrochloride, reference compound]
Male mice of ddN strain
  Analgesic ED50 value, D'Amour-Smith method: inactive

## COc1ccc(CN2CCN(C(c3ccccc3)C(O)c3ccccc3)CC2)cc1.Cl.Cl (stereo not drawn) [Test Compound F, d-Erythro-1,2-diphenyl-2-[4-(p-methoxybenzyl)piperazin-1-yl]ethanol dihydrochloride]
Female mice; p.o.
  Analgesic ED50 value, Phenylquinone method: 63.2 mg/kg
Male guinea-pigs
  anti-tussive activity: excellent anti-tussive activity in a dose of 5-40 mg/kg
  anti-tussive activity compared with codeine phosphate: more potent than that of codeine phosphate
Male mice of ddN strain
  Analgesic ED50 value, D'Amour-Smith method: 37.2 mg/kg

## Cc1c(N(C)C)c(=O)n(-c2ccccc2)n1C [compound 3, Aminopyrine, reference compound]
Female mice
  ED50: 53.3 mg/kg
Male mice of ddN strain
  ED50: 233 mg/kg
